Data taken from patent publication US6384063B1, “Compound having effect of promoting neuron differentiation” (Nippon Kayaku Kabushiki Kaisha, priority 1997, dated 2002).
Entries after “also recorded” stand apart in the source; their conditions may differ.

Tested on: PC12 cells
Assay: Neuron-like neurite extension on PC12 cells
Assay type: cell-based, rat
Conditions: morphological change observed microscopically one day after adding test compound
Excerpt: Neuron-like neurite extension effect of the compounds of this invention on PC12 cells
The effect of the compounds of the invention was examined by a modification of the method of Green et al., Ann. Rev. Neurosci., 3, 353, 1980, and evaluated in terms of morphological change of PC12 cells and a level of the change. That is, PC12 cells were inoculated on Dulbecco-modified Eagle's medium supplemented with 10% calf fetal serum and 10% equine serum in approximately 100,000 cells/ml. The cells were incubated at 37° C. overnight in 5% CO2 using collagen-coated 96 well multiplates. Morphological change of the cells was microscopically observed one day after the test compound was added to each well under this conditions.
The minimum effective dose (MED, g/ml) of each compound on PC12 cells that caused neuron-like neurite extension is shown in Table 2 below.
For “2-methyl-4-oxo-4-phenyl-3-(1-piperazinyl)methylbutyric Acid [Compound 41F]”, the Minimum effective dose (MED) to cause neuron-like neurite extension on PC12 cells was 6.3 µg/mL. Molecule “3-{2-(acetylamino)ethylthio}methyl-4-(4-methylphenyl)-4-oxobutyric Acid [Compound 12D]” has a Minimum effective dose (MED) to cause neuron-like neurite extension on PC12 cells of 13 µg/mL. With “4-(1-piperazinyl)methyl-5-oxo-5-phenylpentanoic Acid [Compound 42F]” the Minimum effective dose (MED) to cause neuron-like neurite extension on PC12 cells was 1.6 µg/mL. For “4-(4-methoxyphenyl)-4-oxo-3-(1-piperidyl)methylbutyric Acid [Compound 3F]”, the Minimum effective dose (MED) to cause neuron-like neurite extension on PC12 cells was 3.1 µg/mL. In the case of “4-(4-methylphenyl)-4-oxo-3-(1-piperidyl)methylbutyric Acid [Compound 2F]”, the Minimum effective dose (MED) to cause neuron-like neurite extension on PC12 cells is reported as 3.1 µg/mL. With COC(=O)[C@@H]1CCC(=O)[C@H]1CSC[C@H](NC(C)=O)C(=O)N1CCCC1 (relative stereo) [Compound 5B, trans-2-[(2R)-{2-acetylamino-3-oxo-3-(1-pyrrolidinyl)}propylthio]methyl-3-methoxycarbonyl-1-cyclopentanone] the Minimum effective dose (MED) to cause neuron-like neurite extension on PC12 cells was 0.8 µg/mL. In the case of COC(=O)[C@@H]1CCCN1C(=O)[C@H](CSC[C@@H]1C(=O)CC[C@H]1C(=O)O)NC(C)=O (relative stereo) [Compound 6B, trans-2-[(2R)-[2-acetylamino-3-{1-((2S)-2-methoxycarbonylpyrrolidinyl)}-3-oxo]propylthio]methyl-3-oxo-1-cyclopentanecarboxylic Acid], the Minimum effective dose (MED) to cause neuron-like neurite extension on PC12 cells is reported as 1.6 µg/mL. In the case of COC(=O)[C@@H]1CCN1C(=O)[C@H](CSC[C@@H]1C(=O)CC[C@H]1C(=O)O)NC(C)=O (relative stereo) [Compound 7B, trans-2-[(2R)-[2-acetylamino-3-{1-((2S)-2-methoxycarbonylazetidinyl)}-3-oxo]propylthio]methyl-3-oxo-1-cyclopentanecarboxylic Acid], the Minimum effective dose (MED) to cause neuron-like neurite extension on PC12 cells is reported as 3.1 µg/mL. Molecule CC(=O)NC(CCCCCCCCCCSC[C@@H]1C(=O)CC[C@H]1C(=O)O)C(=O)O (relative stereo) [Compound 9B, trans-2-[(11-acetylamino-11-carboxy)undecylthio]methyl-3-oxo-1-cyclopentanecarboxylic acid] has a Minimum effective dose (MED) to cause neuron-like neurite extension on PC12 cells of 6.3 µg/mL. CC(=O)N[C@@H](CSCC1CC(C(=O)O)CC1=O)C(=O)O (stereo partly drawn) [Compound 1A, 4-[(2R)-(2-acetylamino-2-carboxy)ethylthio]methyl-3-oxo-1-cyclopentanecarboxylic Acid] gave a Minimum effective dose (MED) to cause neuron-like neurite extension on PC12 cells of 3.2 µg/mL. CC(=O)N[C@@H](CSC[C@@H]1C(=O)CC[C@H]1C(=O)O)C(=O)N1CCCC1 [Compound 1B, (1R,2S)-2-[(2R)-{2-acetylamino-3-oxo-3-(1-pyrrolidinyl)}propylthio]methyl-3-oxo-1-cyclopentanecarboxylic Acid] showed a Minimum effective dose (MED) to cause neuron-like neurite extension on PC12 cells of 3.2 µg/mL. In the case of COC(=O)[C@H](CSCC1CC(C(=O)O)CC1=O)NC(C)=O (stereo partly drawn) [Compound 2A, 4-[(2R)-(2-acetylamino-2-methoxycarbonyl)ethylthio]methyl-3-oxo-1-cyclopentanecarboxylic Acid], the Minimum effective dose (MED) to cause neuron-like neurite extension on PC12 cells is reported as 3.2 µg/mL. Molecule CC(=O)N[C@@H](CSC[C@@H]1C(=O)CC[C@H]1C(=O)O)C(=O)N1CCOCC1 [Compound 2B, (1R,2S)-2-[(2R)-{2-acetylamino-3-(4-morpholinyl)-3-oxo}propylthio]methyl-3-oxo-1-cyclopentanecarboxylic Acid] has a Minimum effective dose (MED) to cause neuron-like neurite extension on PC12 cells of 1.6 µg/mL. In the case of CC(=O)N[C@@H](CSCC1=C[C@H](O)CC1=O)C(=O)O [Compound 2C, (4R)-2-[(2R)-(2-acetylamino-2-carboxy)ethylthio]methyl-4-hydroxy-2-cyclopenten-1-one], the Minimum effective dose (MED) to cause neuron-like neurite extension on PC12 cells is reported as 6.3 µg/mL. COC(=O)[C@H](CSCC1C(=O)c2ccccc2C1C(=O)O)NC(C)=O (stereo partly drawn) [Compound 6A, 2-((2R)-(2-acetylamino-2-methoxycarbonyl)ethylthio)methyl-3-oxo-1-indanecarboxylic Acid] gave a Minimum effective dose (MED) to cause neuron-like neurite extension on PC12 cells of 25 µg/mL. In the case of CN1CCN(CC(CC(=O)O)C(=O)c2ccccc2)CC1 (stereo not shown) [Compound 6F, 3-{1-(4-methylpiperazinyl)}methyl-4-oxo-4-phenylbutyric acid], the Minimum effective dose (MED) to cause neuron-like neurite extension on PC12 cells is reported as 3.1 µg/mL. In the case of CC(=O)N[C@@H](CSCC(CC(=O)O)C(=O)c1ccccc1)C(=O)O (stereo partly drawn) [Compound 7D, 3-[(2R)-(2-acetylamino-2-carboxy)ethylthio]methyl-4-oxo-4-phenylbutyric Acid], the Minimum effective dose (MED) to cause neuron-like neurite extension on PC12 cells is reported as 13 µg/mL. With COC(=O)[C@H](CSCC(CC(=O)O)C(=O)c1ccccc1)NC(C)=O (stereo partly drawn) [Compound 8D, 3-[(2R)-(2-acetylamino-2-methoxycarbonyl)ethylthio]methyl-4-oxo-4-phenylbutyric Acid] the Minimum effective dose (MED) to cause neuron-like neurite extension on PC12 cells was 6.3 µg/mL. In the case of COC(=O)[C@H](CSCC(CC(=O)O)C(=O)c1ccc(OC)cc1)NC(C)=O (stereo partly drawn) [Compound 9D, 3-[(2R)-(2-acetylamino-2-methoxycarbonyl)ethylthio]methyl-4-(4-methoxyphenyl)-4-oxobutyric Acid], the Minimum effective dose (MED) to cause neuron-like neurite extension on PC12 cells is reported as 50 µg/mL. Work on CC(=O)N[C@@H](CSC[C@@H]1C(=O)CC[C@H]1C(=O)O)C(=O)N1CCN(c2ccccc2)CC1 [Compound 13B, (1R,2S)-2-[(2R)-2-acetylamino-3-oxo-3-{1-(4-phenyl)piperazinyl}propylthio]methyl-3-oxo-1-cyclopentanecarboxylic Acid] yielded a Minimum effective dose (MED) to cause neuron-like neurite extension on PC12 cells of 1.6 µg/mL. COC(=O)[C@H](CSCC(CC(=O)O)C(=O)c1ccc(C)cc1)NC(C)=O (stereo partly drawn) [Compound 13D, 3-{(2R)-(2-acetylamino-2-methoxycarbonyl)ethylthio}methyl-4-(4-methylphenyl)-4-oxobutyric Acid] showed a Minimum effective dose (MED) to cause neuron-like neurite extension on PC12 cells of 13 µg/mL. Molecule C[n+]1cccc(CCCSCC2C(=O)CCC2C(=O)O)c1.[I-] [Compound 15B, (1R,2S)-2-[3-{3-(1-methylpyridinium iodide)}propylthio]methyl-3-oxo-1-cyclopentanecarboxylic Acid] has a Minimum effective dose (MED) to cause neuron-like neurite extension on PC12 cells of 3.1 µg/mL. Work on COC(=O)[C@H](CSCC(CC(=O)O)C(=O)c1cccnc1)NC(C)=O (stereo partly drawn) [Compound 32D, 3-[(2R)-(2-acetylamino-2-methoxycarbonyl)ethylthio]methyl-4-oxo-4-(3-pyridyl)butyric Acid] yielded a Minimum effective dose (MED) to cause neuron-like neurite extension on PC12 cells of 3.1 µg/mL. Molecule CC(=O)N[C@@H](CSCC(CCC(=O)O)C(=O)c1ccccc1)C(=O)O (stereo partly drawn) [Compound 38D, 4-[(2R)-{(2-acetylamino-2-carboxy)ethylthio}]methyl-5-oxo-5-phenylpentanoic acid] has a Minimum effective dose (MED) to cause neuron-like neurite extension on PC12 cells of 6.3 µg/mL. Work on “(1R,2S)-2-[(2R)-({2-carboxy-2-pentafluoropropionylamino)ethylthio]methyl-3-oxo-1-cyclopentanecarboxylic acid [Compound 4B]” yielded a Minimum effective dose (MED) to cause neuron-like neurite extension on PC12 cells of 3.2 µg/mL. Molecule “trans-2-[(2R)-(2-carboxy-2-pentafluoropropionylamino)ethylthio]methyl-3-hydroxymethyl-1-cyclopentanone [Compound 8B]” has a Minimum effective dose (MED) to cause neuron-like neurite extension on PC12 cells of 0.8 µg/mL.

Tested on: not listed separately
Assay: Solubility of NA32176A (physicochemical properties)
Conditions: qualitative, by solvent; listed as NA32176A
Excerpt: Physicochemical properties of the thus obtained physiologically active substance NA32176A are shown below.
With CC(C)(CO)C(O)C(=O)NCCC(=O)NCCSCC1C(=O)CCC1C(=O)O [Compound 1E, (1R,2S)-2-[N-(panthoyl- -alanylamido)ethylthio]methyl-3-oxo-1-cyclopentanecarboxylic Acid] the Solubility was “soluble in a lower alcohol, water or dimethylsulfoxide; also recorded: insoluble in hexane or petroleum ether”.

Tested on: PC 12 cells
Assay: not given
Conditions: qualitative, background art; cited from earlier work
For CN[C@@H]1C[C@H]2O[C@@](C)([C@@H]1OC)n1c3ccccc3c3c4c(c5c6ccccc6n2c5c31)C(=O)NC4 [staurosporin], the “PC 12 cell differentiation promoting activity” value is given as “found to have the PC 12 cell differentiation promoting activity”.
